The experiment in a line: Inhibition of formalin induced pain response in mice. In kind it is in vivo, mouse (NMRI female mice). The following applies: 0.1 mg/kg, 1% formalin into left hind paw. As for the experimental part: Compounds of formula I may be used to treat all painful, hyperalgesic and/or inflammatory conditions in which C-fibers play a pathophysiological role by eliciting neurogenic pain or inflammation, i.e.: Formalin induced pain or paw oedema […] About 20 g NMRI female mice were injected […] 1% formalin into the left hind paw. The animals were then placed on a heated (31° C.) table, and the pain response was scored. After 1 h they were killed and bled. Left and right hind paws were removed and the weight difference between the paws was used as indication of the oedema response of the formalin injected paw. Values for inhibition of formalin induced pain response for some representative compounds are recorded in table 1.

This note sets out measurements from US5716949A, “Heterocyclic compounds” (Novo Nordisk A/S, priority 1995, dated 1998).

Structures can show the parent of a compound that is named as a salt.

In the case of `Cl.O=C1Cc2ccccc2N(CCCN2CCC[C@@H](C(=O)O)C2)c2ccccc21` [Example 1, (R)-1-(3-(10-Oxo-10,11-dihydro-5H-dibenz[b,f]azepin-5-yl)-1-propyl)-3-piperidinecarboxylic acid hydrochloride], the “% Pain inhibition (inhibition of formalin induced pain response)” value is 21%.

In the case of `O=C(O)[C@@H]1CCCN(CCC=C2c3ccccc3CSc3ccccc32)C1` [Example 3, (R)-1-(3-(6,11-Dihydro-dibenz[b,e]thiepin-11-yl)-1-propylidene)-3-piperidinecarboxylic acid hydrochloride], the “% Pain inhibition (inhibition of formalin induced pain response)” value is 31%.
